Results on four compounds are retold here after paper PMC10761396, “Evaluation of new alternative methods for the identification of estrogenic, androgenic and steroidogenic effects: a comparative in vitro/in silico study” (Archives of Toxicology, 2023).

In data set [1] the test system is ER. Also on record: method as in Browne, et al (2015). The settings on record: ref Browne, et al (2015), cited from earlier work; for ToxCast Pathway Model (AUC): as agonist where given, value above 0.1 = significant interaction.
Data set [2] has as its target T1, AR (Homo sapiens, UniProt P10275).
T1 sequence (P10275 1-920): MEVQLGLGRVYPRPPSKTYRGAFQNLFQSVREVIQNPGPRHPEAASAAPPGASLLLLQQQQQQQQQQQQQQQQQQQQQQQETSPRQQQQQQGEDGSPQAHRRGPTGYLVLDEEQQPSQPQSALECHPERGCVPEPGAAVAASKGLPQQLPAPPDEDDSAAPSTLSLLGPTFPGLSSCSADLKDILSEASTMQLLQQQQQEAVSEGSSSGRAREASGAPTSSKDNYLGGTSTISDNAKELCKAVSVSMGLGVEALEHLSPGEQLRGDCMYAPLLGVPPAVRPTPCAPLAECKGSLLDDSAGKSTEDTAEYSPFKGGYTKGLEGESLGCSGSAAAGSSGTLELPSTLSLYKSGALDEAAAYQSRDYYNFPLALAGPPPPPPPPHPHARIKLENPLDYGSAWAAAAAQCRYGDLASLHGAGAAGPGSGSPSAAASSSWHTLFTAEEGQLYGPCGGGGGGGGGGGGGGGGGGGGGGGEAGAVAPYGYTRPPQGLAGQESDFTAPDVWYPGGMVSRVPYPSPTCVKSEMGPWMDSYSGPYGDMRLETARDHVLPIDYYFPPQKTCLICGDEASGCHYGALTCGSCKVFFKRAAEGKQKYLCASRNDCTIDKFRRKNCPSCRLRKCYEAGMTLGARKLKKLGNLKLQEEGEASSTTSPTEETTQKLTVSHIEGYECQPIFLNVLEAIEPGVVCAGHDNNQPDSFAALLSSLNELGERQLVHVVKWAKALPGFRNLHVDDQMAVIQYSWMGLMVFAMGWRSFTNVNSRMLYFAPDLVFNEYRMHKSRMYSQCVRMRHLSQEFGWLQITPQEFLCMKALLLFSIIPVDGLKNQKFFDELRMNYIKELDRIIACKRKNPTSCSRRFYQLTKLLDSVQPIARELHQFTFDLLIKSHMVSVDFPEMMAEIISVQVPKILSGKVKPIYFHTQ
In words: YAS (Yeast androgen screen) assay, agonist and antagonist mode.
Description: (§1) The YES/YAS XL (Xtra Lyticase) assay kit from Xenometrix AG (Allschwil, Switzerland) was conducted according to the Supplier’s instructions.
(§2) In the YES assay, human ERα is integrated in the yeast (Saccharomyces cerevisiae) chromosome, and for the YAS assay human AR is integrated (Routledge and Sumpter 1996; Sohoni and Sumpter 1998). […] This enzyme then converts a yellow substrate to a purple metabolite, which can be measured colorimetrically.
(§3) Growing yeast cells stably transformed with either hERα (YES) or hAR (YAS) and a β-galactosidase reporter system were exposed to a range of concentrations of each test compound. […] The positive control chemicals for agonistic effects were 17-β estradiol for YES and 5α-dihydrotestosterone for YAS. […] A combination of a fixed concentration of positive control and a range of concentrations of each test chemical were tested. The cells were incubated with each treatment for 18 h at 31°C. The cells were lysed in the presence of the yellow β-galactosidase-substrate, chlorophenol red-β-D-galactopyranoside (CPRG). Yeast cell growth was assessed prior to addition of the lysis buffer by measuring the absorbance at 690 nm. The production of the red metabolite of CPRG was determined by measuring the absorbance at 570 nm. It was corrected for diffraction by cells and debris by a simultaneous measurement at 690 nm. The results were evaluated for estrogenic and androgenic agonistic and antagonistic activity, as well as for yeast growth inhibition or cytotoxicity.
(§4) An IR value ≥ IR10 in the YES or YAS agonist assay indicates an agonistic effect (IR10 is defined as the IR which is 10% of (IR max - IR solvent) above the IR solvent. An IR value ≤ IR50 in the YES or YAS antagonist assay indicates a possible antagonistic effect (IR50 is defined as 50% of (IR control - IR solvent), where the IR control is at the corresponding fixed concentration of agonist used: 3.3 × 10^-10 M 17-β estradiol and 3.3 × 10^-9 M 5α-dihydrotestosterone, respectively). […]

In data set [3] the test system is human (non-selective) ER. In words: ER radioligand ([3H]estradiol) receptor-binding assay. As to conditions: for inhibition of control specific binding to the ER: single-dose screening, 10 µM.
Description: The chemicals were tested for their ability to bind to different targets. […] Chemicals were incubated at 10 µM with cells overexpressing ER or AR for 24 h at 4°C, after which, the binding of the radiolabeled ligand ([^3H]estradiol for ER and [^3H]methyltrienolone for AR) was measured by liquid scintillation counting. An increase or decrease higher than 50% were considered to represent significant effects. Four chemicals were tested in additional incubations at several concentrations up to the maximum soluble concentration for IC50 or EC50 determination for the associated target. Receptor binding was calculated as a % inhibition of the binding of a radioactively labeled ligand specific for each target.
Each test chemical was tested in a single assay in duplicate.
Data set [4] concerns the target T2, human recombinant CYP19A1 (Homo sapiens, UniProt P11511).
T2 sequence (P11511 1-503): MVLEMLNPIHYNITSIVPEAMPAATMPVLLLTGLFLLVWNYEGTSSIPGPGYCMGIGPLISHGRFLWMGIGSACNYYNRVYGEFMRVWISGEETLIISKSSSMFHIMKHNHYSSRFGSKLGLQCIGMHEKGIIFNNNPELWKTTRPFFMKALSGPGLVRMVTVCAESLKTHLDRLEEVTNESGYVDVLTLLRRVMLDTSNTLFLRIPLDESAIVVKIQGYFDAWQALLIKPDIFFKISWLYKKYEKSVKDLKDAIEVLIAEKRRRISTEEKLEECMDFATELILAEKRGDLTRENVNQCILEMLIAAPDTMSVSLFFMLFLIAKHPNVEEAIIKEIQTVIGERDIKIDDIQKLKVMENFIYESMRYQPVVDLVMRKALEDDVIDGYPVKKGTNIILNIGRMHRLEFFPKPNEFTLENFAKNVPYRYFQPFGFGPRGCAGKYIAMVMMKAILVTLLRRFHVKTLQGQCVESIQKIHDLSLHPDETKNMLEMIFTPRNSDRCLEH
In words: Recombinant enzyme aromatase activity inhibition assay. As to conditions: follow-up dose–response assay. It is filed as biochemical. The procedure:
An aromatase inhibition assay was also included in the in vitro assay panel. This enzyme – otherwise known as CYP19A1 - is responsible for converting androgens into estrogens (Blakemore and Naftolin 2016; Bulun 2014); therefore, chemicals that inhibit aromatase activity can lead to reduced estrogen production, which can affect reproductive and developmental processes (Kragie 2002; Tiboni and Ponzano 2016).
The metabolite, estradiol, was measured by time-resolved fluorescence according to the method described previously (Ji et al. 2014). Enzyme inhibition was calculated as a % inhibition of control enzyme activity.

Data set [5] addresses T3, ERα (Homo sapiens, UniProt P03372).
T3 sequence (P03372 1-595): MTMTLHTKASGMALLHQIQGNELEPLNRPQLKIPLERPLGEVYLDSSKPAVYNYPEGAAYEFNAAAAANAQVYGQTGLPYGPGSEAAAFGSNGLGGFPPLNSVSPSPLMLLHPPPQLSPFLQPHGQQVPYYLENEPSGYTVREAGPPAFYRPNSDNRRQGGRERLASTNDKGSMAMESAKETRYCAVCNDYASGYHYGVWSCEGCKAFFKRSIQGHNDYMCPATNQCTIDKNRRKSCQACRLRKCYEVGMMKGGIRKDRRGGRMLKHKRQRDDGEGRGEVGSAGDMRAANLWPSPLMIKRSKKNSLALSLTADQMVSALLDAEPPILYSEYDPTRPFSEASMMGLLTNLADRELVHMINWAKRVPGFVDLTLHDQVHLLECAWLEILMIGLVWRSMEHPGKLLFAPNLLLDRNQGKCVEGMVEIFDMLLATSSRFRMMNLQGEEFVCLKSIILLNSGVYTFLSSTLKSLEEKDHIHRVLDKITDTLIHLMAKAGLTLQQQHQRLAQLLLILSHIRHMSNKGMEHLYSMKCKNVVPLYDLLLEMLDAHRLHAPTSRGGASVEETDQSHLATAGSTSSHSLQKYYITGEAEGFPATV
Description: YES (Yeast oestrogen screen) assay, agonist and antagonist mode. As to conditions: YES agonist assay; duplicates in two independent experiments.
Description: as §1, §2, §3, §4

Consider `CC(C)(C)CC(C)(C)c1ccc(O)cc1` [4-TO, 4-tert-octylphenol], for which, in data set [1], the “ToxCast Pathway Model (AUC)” value is 0.393 and the “ToxCast Pathway Model interaction” value is “significant interaction”. In addition, in data set [2] (agonist and antagonist), the “outcome in the YAS assay” value was “negative”. The “toxicity to yeast (decrease in the yeast cell growth)” value in data set [2] (highest concentrations tested) is listed as “toxic at the highest concentrations tested”.
`CCCCN(CCCC)c1ccc(C(=O)c2ccccc2C(=O)O)c(O)c1` [DBABA, 2-[4-(dibutylamino)-2-hydroxybenzoyl]benzoic acid]: the “AR antagonism in the YAS assay” value in data set [2] (YAS antagonist assay) is on record as “inconclusive”.
Regarding `O=c1c(-c2ccc(O)cc2)coc2cc(O)ccc12` [Daidzein, daidzein], the “inhibition of control specific binding to the ER” value in data set [3] was “more than 50%”. The aromatase inhibition outcome in data set [4] is reported as “lack of binding”. In data set [1], the “ToxCast Pathway Model (AUC)” value is reported as 0.44 and the “ToxCast Pathway Model interaction” value was “significant interaction”. Moreover, in data set [5], the “ER agonism in the YES assay” value is on record as “positive”.
By IC50 is commonly meant the point on the concentration scale where inhibition reaches its midpoint. Lower therefore signals inhibition by little substance. For orientation: Ki means the equilibrium dissociation constant of an inhibitor or competing ligand from its target. Low values mean higher affinity, high ones lower affinity. For the compound `C[C@]12CCC(=O)C[C@@H]1CC[C@@H]1[C@@H]2CC[C@@]2(C)[C@H]1CC[C@]2(C)O` [Mestanolone, mestanolone, reference compound], in data set [3], the ER binding outcome is “confirmed to bind to the ER” and the “inhibition of control specific binding to the ER” value is “more than 50%”. Moreover, in data set [3] (follow-up dose–response assay), the IC50 is 1600 nM and the inhibition constant Ki turned out to be 520 nM. Further, in data set [4], the aromatase inhibition outcome is given as “lack of binding”. In data set [5], the “ER agonism in the YES assay” value was “positive”.
